# Test results taken from patent US8956555B2, “Silylethynyl pentacene compounds and compositions and methods of making and using the same” (3M Innovative Properties Company, priority 2008, dated 2015).
# Assay: Solubility in organic solvent (toluene)
# Type: physicochemical
structure (smiles),measurement,value
"C=CC[Si](C#Cc1c2cc3ccccc3cc2c(C#C[Si](CC=C)(C(C)C)C(C)C)c2cc3ccccc3cc12)(C(C)C)C(C)C [Compound I, 6,13-bis(allyldiisopropylsilylethynyl)pentacene]",solubility in toluene,greater than 21 wt %
